US12357606B2, “Compositions and methods for treating defects in avascular cartilaginous tissue by directly administering one or more metabolites of simvastatin” (University of Cincinnati, priority 2017, dated 2025)

Legend:
[1] = test system: BMP-2 mRNA expression in rat NP cells; test: BMP-2 mRNA expression in rat NP cells cultured in alginate beads (RT-qPCR); format: cell-based; details: for BMP-2 mRNA expression with a GGTase inhibitor, level compared with SV: single GGTase inhibitor
Source text: Data are normalized with GAPDH and are expressed as ratio to vehicle (DMSO).
Findings from the investigation on SV stimulating endogenous BMP-2 expression in the treated NP cells, which in turn increases chondrogenic phenotype expression (aggrecan and type II collagen mRNA expression as well as sGAG content), were consistent with the above observations, validating that the small molecule is as efficacious in promoting chondrogenesis as to osteogenesis. […] SV has been prescribed widely for the treatment of hypercholesterolaemia and hypertriglyceridaemia. In humans, it undergoes rapid metabolism to form four major oxidative, NADPH-dependent metabolites, 3′-hydroxy SV (hSV), 6′-exomethylene SV (eSV), 3′,5′-dihydrodiol SV (dSV), and SVA (FIG. 5). […] This raised the question as to whether SVA is dominant in the entire scheme of BMP-2 upregulation. To test whether the levels of induced-BMP-2 by both SV and SVA, respectively, would be any different, the present investigators used the in vitro model system developed in the prior study to conduct the test. Rat NP cells harvested from tail discs were cultured initially in monolayer and then in alginate beads (Zhang H. et al. Spine, 2008; 33(16), the entire disclosure of which is incorporated herein by reference). Cells were treated with DMSO (vehicle), SV or SVA at 1 or 3 μM. Cells were then collected at pre-determined time points and with RNA extracted. Gene expression was analyzed by RT-qPCR. […] The BMP-2 level induced in the SVA group was 5-6 times higher than that in the SV one (FIG. 1A).
The classic mechanism understood for cholesterol lowering by statins is that statins act by competitively inhibiting HMG-CoA reductase, the first committed enzyme of the mevalonate (MVA) pathway. This competition reduces the rate by which HMG-CoA reductase is able to produce MVA, the next molecule in the cascade for the synthesis of prenylation enzyme substrates FPP and GGPP that eventually help produce cholesterol. As indicated previous studies by the inventors (Zhang H. N., Lin C. Y. Spine. 2008; 33(16), fully incorporated herein by reference), when SV was present, BMP-2 mRNA expression of NP cells always responded in a time and dose-dependent manner.

avascular tissue = test: Regeneration of avascular tissue upon direct administration; details: for regeneration on administration: non-HMG-CoA reductase inhibitor metabolites
mevalonate conversion = test: Inhibition of mevalonate conversion; format: biochemical
BMP-2 = details: non-HMG-CoA reductase inhibitor metabolites

Row | Compound | BMP-2 mRNA expression with a GGTase inhibitor, level compared with SV [1] | effect on BMP-2 upregulation (BMP-2) | regeneration on administration (avascular tissue) | also measured
1 | COC(=O)[C@H](CC(C)C)NC(=O)c1ccc(NC[C@@H](N)CS)cc1-c1ccccc1 [GGTI-286, reference compound] | able to increase BMP-2 mRNA expression, but the level was much lower than that found with SV |  |  | 
2 | CCC(C)(C)C(=O)O[C@H]1C[C@@H](C)C=C2C=C[C@H](C)[C@H](CC[C@@H](O)C[C@@H](O)CC(=O)O)[C@H]21 [SVA, simvastatin beta-hydroxy acid] |  |  |  | anabolic effect relative to SV alone (avascular tissue; regeneration of avascular tissue upon direct administration): 5-6 times; mRNA expression of BMP-2 in cells treated with SVA compared to cells treated with SV ([1]; 1 μM, Day 1 to 3, rat NP cells): the same or doubled; BMP-2 level induced in the SVA group relative to the SV group ([1]; 1 μM, Day 7, rat NP cells): 5-6 times; difference in BMP-2 level between SVA and SV ([1]; 3 μM, rat NP cells): further augmented; inhibition of mevalonate conversion compared with SV (mevalonate conversion): more efficiently than SV
3 | C=C(C)[C@@H]1CC=C(CO)CC1 [POH, reference compound] | able to increase BMP-2 mRNA expression, but the level was much lower than that found with SV |  |  | 
4 | CCC(C)(C)C(=O)OC1CC(C)C(O)C2=CC(O)C(C)C(CCC3CC(O)CC(=O)O3)C21 (centres unmarked) [dSV, 3′,5′-dihydrodiol simvastatin] |  | also affect BMP-2 upregulation | promoted a degree of regeneration | 
5 | 3′-hydroxy simvastatin [hSV] |  | also affect BMP-2 upregulation | promoted a degree of regeneration | 
